15 compounds from patent publication US20240246964A1 (Arbutus Biopharma Corporation, priority 2021, published 2024) can be followed below.

As usually defined, the EC50 is the midpoint of the concentration-response curve. The low end stands for higher potency in that assay, the high end for lower potency in that assay.

This experiment addresses human PD-L1 (Homo sapiens (Human), UniProt Q9NZQ7). As to the kind of experiment: T cell activation luciferase reporter cell culture system (T Cell Activation Assay). It is filed as cell-based. The note with it: luciferase reporter assay; PD-L1 aAPC/CHO-K1 cells with PD-1 effector Jurkat T cells. In general terms: A reporter such as luciferase makes a cellular process visible.

Each structure is given as a SMILES string.

Sequence of human PD-L1 (Q9NZQ7 19-290): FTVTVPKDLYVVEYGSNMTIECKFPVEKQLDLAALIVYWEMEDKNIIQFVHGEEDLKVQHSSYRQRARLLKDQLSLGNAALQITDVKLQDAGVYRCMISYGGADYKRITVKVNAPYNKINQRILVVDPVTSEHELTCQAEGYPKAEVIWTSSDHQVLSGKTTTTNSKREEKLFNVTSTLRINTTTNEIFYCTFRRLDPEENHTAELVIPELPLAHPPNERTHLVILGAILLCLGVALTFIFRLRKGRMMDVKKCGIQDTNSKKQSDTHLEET

In the case of `COc1nc(-c2cccc(-c3ccnc(-c4ccc(CNC5CCN(C)C(=O)C5)c(OC(F)F)c4)c3Cl)c2Cl)ccc1CNC1CCN(C)C(=O)C1` (racemic) [Example 619, 4-(((6-(2-Chloro-3-(3-chloro-2-(3-(difluoromethoxy)-4-(((1-methyl-2-oxopiperidin-4-yl)amino)methyl)phenyl)pyridin-4-yl)phenyl)-2-methoxypyridin-3-yl)methyl)amino)-1-methylpiperidin-2-one], it took 66.9 nM to reach a half-maximal effect (EC50).

Turning to `COc1cc(-c2nccc(-c3cccc(-c4ccn5c(=O)c(CNC[C@@H]6CCC(=O)N6)cnc5c4)c3Cl)c2Cl)ccc1CNC[C@@H]1CCC(=O)N1` [Cmpd 1, 8-(2-chloro-3-(3-chloro-2-(3-methoxy-4-(((((S)-5-oxopyrrolidin-2-yl)methyl)amino)methyl)phenyl)pyridin-4-yl)phenyl)-3-(((((S)-5-oxopyrrolidin-2-yl)methyl)amino)methyl)-4H-pyrido[1,2-a]pyrimidin-4-one], the EC50 came to 300 nM.

`COc1nc(-c2cccc(-c3ccnc(-c4ccn5c(=O)c(CNC[C@@H]6CCC(=O)N6)cnc5c4)c3Cl)c2Cl)ccc1CNC[C@@H]1CCC(=O)N1` [Cmpd 2, 8-(3-chloro-4-(2-chloro-3-(6-methoxy-5-(((((S)-5-oxopyrrolidin-2-yl)methyl)amino)methyl)pyridin-2-yl)phenyl)pyridin-2-yl)-3-(((((S)-5-oxopyrrolidin-2-yl)methyl)amino)methyl)-4H-pyrido[1,2-a]pyrimidin-4-one] had an EC50 of 87.6 nM. `COc1nc(-c2cccc(-c3ccnc(-c4ccc5c(c4)N(C)CCNC5)c3Cl)c2Cl)ccc1CNC[C@@H]1CCC(=O)N1` [Cmpd 3, (S)-5-((((6-(2-chloro-3-(3-chloro-2-(1-methyl-2,3,4,5-tetrahydro-1H-benzo[e][1,4]diazepin-8-yl)pyridin-4-yl)phenyl)-2-methoxypyridin-3-yl)methyl)amino)methyl)pyrrolidin-2-one] returned an EC50 of 42.9 nM.

In the case of `COc1nc(-c2cccc(-c3ccnc(-c4ccc5c(c4)N(C)CCNC5)c3Cl)c2Cl)ccc1CNCC(C)NC(C)=O` (stereo not drawn) [Cmpd 5, N-(1-(((6-(2-chloro-3-(3-chloro-2-(1-methyl-2,3,4,5-tetrahydro-1H-benzo[e][1,4]diazepin-8-yl)pyridin-4-yl)phenyl)-2-methoxypyridin-3-yl)methyl)amino)propan-2-yl)acetamide], the concentration for a half-maximal effect (EC50) stood at 172 nM. The same measure for `COc1cc(-c2nccc(-c3cccc(-c4ccc(CNC[C@@H]5CCC(=O)N5)c(OC)n4)c3Cl)c2Cl)cc2c1CN(C[C@@H]1CCC(=O)N1)CC2` [Cmpd 6, (S)-5-((((6-(2-chloro-3-(3-chloro-2-(8-methoxy-2-(((S)-5-oxopyrrolidin-2-yl)methyl)-1,2,3,4-tetrahydroisoquinolin-6-yl)pyridin-4-yl)phenyl)-2-methoxypyridin-3-yl)methyl)amino)methyl)pyrrolidin-2-one]: 22.3 nM; for `COc1cc(-c2nccc(-c3cccc(-c4ccc(CNC[C@@H]5CCC(=O)N5)c(OC)n4)c3Cl)c2Cl)cc2c1CNCC2` [Cmpd 7, (S)-5-((((6-(2-chloro-3-(3-chloro-2-(8-methoxy-1,2,3,4-tetrahydroisoquinolin-6-yl)pyridin-4-yl)phenyl)-2-methoxypyridin-3-yl)methyl)amino)methyl)pyrrolidin-2-one]: 53.5 nM.

`COc1cc(-c2nccc(-c3cccc(-c4ccc(CNC[C@@H]5CCC(=O)N5)c(OC)n4)c3Cl)c2Cl)ccc1CNC[C@@H]1CCC(=O)N1` [Cmpd 8, (S)-5-((((6-(2-chloro-3-(3-chloro-2-(3-methoxy-4-(((((S)-5-oxopyrrolidin-2-yl)methyl)amino)methyl)phenyl)pyridin-4-yl)phenyl)-2-methoxypyridin-3-yl)methyl)amino)methyl)pyrrolidin-2-one] yielded an EC50 of 15 nM.

`COc1cc(-c2nccc(-c3cccc(-c4ccc(CNC[C@@H]5CCC(=O)N5)c(OC)n4)c3Cl)c2Cl)cc(F)c1CNC[C@@H]1CCC(=O)N1` [Cmpd 10, (S)-5-((((6-(2-chloro-3-(3-chloro-2-(3-fluoro-5-methoxy-4-(((((S)-5-oxopyrrolidin-2-yl)methyl)amino)methyl)phenyl)pyridin-4-yl)phenyl)-2-methoxypyridin-3-yl)methyl)amino)methyl)pyrrolidin-2-one] returned an EC50 of 20.9 nM.

The compound `COc1nc(-c2cccc(-c3ccnc(-c4ccc5c(CNC[C@@H]6CCC(=O)N6)cn(C)c5c4)c3Cl)c2Cl)ccc1CNC[C@@H]1CCC(=O)N1` [Cmpd 11, (S)-5-((((6-(2-chloro-3-(3-chloro-2-(1-methyl-3-(((((S)-5-oxopyrrolidin-2-yl)methyl)amino)methyl)-1H-indol-6-yl)pyridin-4-yl)phenyl)-2-methoxypyridin-3-yl)methyl)amino)methyl)pyrrolidin-2-one] gave an EC50 of 84 nM. `COc1nc(-c2cccc(-c3ccnc(-c4cnc5c(CNC[C@@H]6CCC(=O)N6)cn(C)c5c4)c3Cl)c2Cl)ccc1CNC[C@@H]1CCC(=O)N1` [Cmpd 13, (S)-5-((((6-(2-chloro-3-(3-chloro-2-(1-methyl-3-(((((S)-5-oxopyrrolidin-2-yl)methyl)amino)methyl)-1H-pyrrolo[3,2-b]pyridin-6-yl)pyridin-4-yl)phenyl)-2-methoxypyridin-3-yl)methyl)amino)methyl)pyrrolidin-2-one] returned a concentration giving a half-maximal response (EC50) of 77.7 nM.

For `COc1nc(-c2cccc(-c3ccnc(-c4ccc5c(c4)N(C)CCN(C[C@@H]4CCC(=O)N4)C5)c3Cl)c2Cl)ccc1CNC[C@@H]1CCC(=O)N1` [Cmpd 19, (S)-5-((((6-(2-chloro-3-(3-chloro-2-(1-methyl-4-(((S)-5-oxopyrrolidin-2-yl)methyl)-2,3,4,5-tetrahydro-1H-benzo[e][1,4]diazepin-8-yl)pyridin-4-yl)phenyl)-2-methoxypyridin-3-yl)methyl)amino)methyl)pyrrolidin-2-one], the response was half-maximal at 61.4 nM (EC50).

In turn, `COc1cc(-c2nccc(-c3cccc(-c4cnc(CNC[C@@H]5CCC(=O)N5)c(OC)n4)c3Cl)c2Cl)ccc1CNC[C@@H]1CCC(=O)N1` [Cmpd 20, (S)-5-((((5-(2-chloro-3-(3-chloro-2-(3-methoxy-4-(((((S)-5-oxopyrrolidin-2-yl)methyl)amino)methyl)phenyl)pyridin-4-yl)phenyl)-3-methoxypyrazin-2-yl)methyl)amino)methyl)pyrrolidin-2-one] had a concentration for a half-maximal effect (EC50) of 22.3 nM.

The compound `COc1cc(-c2nccc(-c3cccc(-c4ccc(CNC[C@@H]5CCC(=O)N5)c(OC)n4)c3Cl)c2Cl)cc2c1CN(C[C@@H](C)O)CC2` [Cmpd 27, (S)-5-((((6-(2-chloro-3-(3-chloro-2-(2-((R)-2-hydroxypropyl)-8-methoxy-1,2,3,4-tetrahydroisoquinolin-6-yl)pyridin-4-yl)phenyl)-2-methoxypyridin-3-yl)methyl)amino)methyl)pyrrolidin-2-one] displayed an EC50 of 25.1 nM.

`COc1cc(-c2nccc(-c3cccc(-c4cc(Cl)c(CNC[C@@H]5CCC(=O)N5)c(OC)n4)c3Cl)c2Cl)cc2c1CN(C[C@@H]1CCC(=O)N1)CC2` [Cmpd 37, (S)-5-((6-(3-chloro-4-(2-chloro-3-(4-chloro-6-methoxy-5-(((((S)-5-oxopyrrolidin-2-yl)methyl)amino)methyl)pyridin-2-yl)phenyl)pyridin-2-yl)-8-methoxy-3,4-dihydroisoquinolin-2(1H)-yl)methyl)pyrrolidin-2-one]: the EC50 worked out at 25.6 nM.
